Tested on: vasopressor response of angiotensin II
Experiment: AII Challenge: antagonism of angiotensin II vasopressor response
Type: in vivo
Settings: for inhibition in vivo at 1 mg/kg / inhibition in vivo at 3 mg/kg: Rattus norvegicus; for inhibition in vivo at 1 mg/kg: iv; for inhibition in vivo at 3 mg/kg: po
Procedure, shortened: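 Percent antagonism is based on the systolic blood pressure rise (mmHg) to i.v. angiotensin II at 0.05 and 0.1 ug/kg. Each rat's own predose response was taken as 100%. Challenges were repeated from 30 to 300 min after i.v., i.p. or oral compound in cannulated conscious male SHR, 16-20 weeks old.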

SMILES: CCCCc1nc2ccc(C3(C(=O)OC)CC4CCCN4O3)cc2c(=O)n1Cc1ccc(-c2ccccc2-c2nnn[nH]2)cc1 (mixture of isomers) [Example 78, Trans(+/-)-Methyl-2-[2-butyl-3,4-dihydro-4-oxo-3-[[2'-(1H-tetrazol-5-yl)[1,1'-biphenyl]-4-yl]methyl-6-quinazolinyl]hexahydropyrrolo[1,2-b]isoxazole-2-carboxylate]
- Response Average Change (1 mg/kg i.v., AII 0.05 mcg/kg IV, 30 min post dose): 5 mmHg
- Response Average Change (1 mg/kg i.v., AII 0.05 mcg/kg IV, 60 min post dose): 12.5 mmHg
- Response Average Change (1 mg/kg i.v., AII 0.05 mcg/kg IV, 90 min post dose): 7.5 mmHg
- Response Average Change (1 mg/kg i.v., AII 0.05 mcg/kg IV, 120 min post dose): 10 mmHg
- Response Average Change (1 mg/kg i.v., AII 0.05 mcg/kg IV, 180 min post dose): 11 mmHg
- Response Average Change (1 mg/kg i.v., AII 0.05 mcg/kg IV, 240 min post dose): 12.5 mmHg
- Response Average Change (1 mg/kg i.v., AII 0.05 mcg/kg IV, 300 min post dose): 5 mmHg
- Response Average Change (1 mg/kg i.v., AII 0.1 mcg/kg IV, 30 min post dose): 15 mmHg
- Response Average Change (1 mg/kg i.v., AII 0.1 mcg/kg IV, 60 min post dose): 12.5 mmHg
- Response Average Change (1 mg/kg i.v., AII 0.1 mcg/kg IV, 90 min post dose): 15 mmHg
- Response Average Change (1 mg/kg i.v., AII 0.1 mcg/kg IV, 120 min post dose): 17.5 mmHg
- Response Average Change (1 mg/kg i.v., AII 0.1 mcg/kg IV, 180 min post dose): 12.5 mmHg
- Response Average Change (1 mg/kg i.v., AII 0.1 mcg/kg IV, 240 min post dose): 12.5 mmHg
- Response Average Change (1 mg/kg i.v., AII 0.1 mcg/kg IV, 300 min post dose): 17.5 mmHg
- Response Average Change (3 mg/kg P.O., AII 0.05 mcg/kg IV, 30 min post dose): 27.5 mmHg
- Response Average Change (3 mg/kg P.O., AII 0.05 mcg/kg IV, 60 min post dose): 22.5 mmHg
- Response Average Change (3 mg/kg P.O., AII 0.05 mcg/kg IV, 90 min post dose): 22.5 mmHg
- Response Average Change (3 mg/kg P.O., AII 0.05 mcg/kg IV, 120 min post dose): 17.5 mmHg
- Response Average Change (3 mg/kg P.O., AII 0.05 mcg/kg IV, 180 min post dose): 19 mmHg
- Response Average Change (3 mg/kg P.O., AII 0.05 mcg/kg IV, 240 min post dose): 19 mmHg
- Response Average Change (3 mg/kg P.O., AII 0.05 mcg/kg IV, 300 min post dose): 27.5 mmHg
- Response Average Change (3 mg/kg P.O., AII 0.1 mcg/kg IV, 30 min post dose): 35 mmHg
- Response Average Change (3 mg/kg P.O., AII 0.1 mcg/kg IV, 60 min post dose): 25 mmHg
- Response Average Change (3 mg/kg P.O., AII 0.1 mcg/kg IV, 90 min post dose): 17.5 mmHg
- Response Average Change (3 mg/kg P.O., AII 0.1 mcg/kg IV, 120 min post dose): 15 mmHg
- Response Average Change (3 mg/kg P.O., AII 0.1 mcg/kg IV, 180 min post dose): 17.5 mmHg
- Response Average Change (3 mg/kg P.O., AII 0.1 mcg/kg IV, 240 min post dose): 17.5 mmHg
- Response Average Change (3 mg/kg P.O., AII 0.1 mcg/kg IV, 300 min post dose): 25 mmHg
- inhibition in vivo at 1 mg/kg (0.5 h, 1 mg/kg i.v., AII 0.05 mcg/kg IV, 30 min post dose): 80%
- inhibition in vivo at 1 mg/kg (0.5 h, 1 mg/kg i.v., AII 0.1 mcg/kg IV, 30 min post dose): 45%
- inhibition in vivo at 1 mg/kg (1 h, 1 mg/kg i.v., AII 0.05 mcg/kg IV, 60 min post dose): 50%
- inhibition in vivo at 1 mg/kg (1 h, 1 mg/kg i.v., AII 0.1 mcg/kg IV, 60 min post dose): 55%
- inhibition in vivo at 1 mg/kg (2 h, 1 mg/kg i.v., AII 0.05 mcg/kg IV, 120 min post dose): 60%
- inhibition in vivo at 1 mg/kg (2 h, 1 mg/kg i.v., AII 0.1 mcg/kg IV, 120 min post dose): 36%
- inhibition in vivo at 1 mg/kg (3 h, 1 mg/kg i.v., AII 0.05 mcg/kg IV, 180 min post dose): 56%
- inhibition in vivo at 1 mg/kg (3 h, 1 mg/kg i.v., AII 0.1 mcg/kg IV, 180 min post dose): 55%
- inhibition in vivo at 1 mg/kg (4 h, 1 mg/kg i.v., AII 0.05 mcg/kg IV, 240 min post dose): 50%
- inhibition in vivo at 1 mg/kg (4 h, 1 mg/kg i.v., AII 0.1 mcg/kg IV, 240 min post dose): 55%
- inhibition in vivo at 1 mg/kg (5 h, 1 mg/kg i.v., AII 0.05 mcg/kg IV, 300 min post dose): 80%
- inhibition in vivo at 1 mg/kg (5 h, 1 mg/kg i.v., AII 0.1 mcg/kg IV, 300 min post dose): 36%
- inhibition in vivo at 1 mg/kg ([…], 1 mg/kg i.v., AII 0.05 mcg/kg IV, 90 min post dose): 70%
- inhibition in vivo at 1 mg/kg ([…], 1 mg/kg i.v., AII 0.1 mcg/kg IV, 90 min post dose): 45%
- inhibition in vivo at 3 mg/kg (0.5 h, 3 mg/kg P.O., AII 0.05 mcg/kg IV, 30 min post dose): 0%
- inhibition in vivo at 3 mg/kg (0.5 h, 3 mg/kg P.O., AII 0.1 mcg/kg IV, 30 min post dose): -17%
- inhibition in vivo at 3 mg/kg (1 h, 3 mg/kg P.O., AII 0.05 mcg/kg IV, 60 min post dose): 18%
- inhibition in vivo at 3 mg/kg (1 h, 3 mg/kg P.O., AII 0.1 mcg/kg IV, 60 min post dose): 17%
- inhibition in vivo at 3 mg/kg (2 h, 3 mg/kg P.O., AII 0.05 mcg/kg IV, 120 min post dose): 36%
- inhibition in vivo at 3 mg/kg (2 h, 3 mg/kg P.O., AII 0.1 mcg/kg IV, 120 min post dose): 50%
- inhibition in vivo at 3 mg/kg (3 h, 3 mg/kg P.O., AII 0.05 mcg/kg IV, 180 min post dose): 31%
- inhibition in vivo at 3 mg/kg (3 h, 3 mg/kg P.O., AII 0.1 mcg/kg IV, 180 min post dose): 42%
- inhibition in vivo at 3 mg/kg (4 h, 3 mg/kg P.O., AII 0.05 mcg/kg IV, 240 min post dose): 31%
- inhibition in vivo at 3 mg/kg (4 h, 3 mg/kg P.O., AII 0.1 mcg/kg IV, 240 min post dose): 42%
- inhibition in vivo at 3 mg/kg (5 h, 3 mg/kg P.O., AII 0.05 mcg/kg IV, 300 min post dose): 0%
- inhibition in vivo at 3 mg/kg (5 h, 3 mg/kg P.O., AII 0.1 mcg/kg IV, 300 min post dose): 17%
- inhibition in vivo at 3 mg/kg ([…], 3 mg/kg P.O., AII 0.05 mcg/kg IV, 90 min post dose): 18%
- inhibition in vivo at 3 mg/kg ([…], 3 mg/kg P.O., AII 0.1 mcg/kg IV, 90 min post dose): 42%

— patent publication US5358951A, “Angiotensin II receptor blocking 2, 3, 6 substituted quinazolinones” (American Cyanamid Company, priority 1993, dated 1994)
